From patent US6346258B1, “Physiological combination of active substances to enhance the skin's defenses against noxious agents” (priority 1997, dated 2002)

Tested on: chorioallantoic membrane
Test: hen's egg test on the chorioallantoic membrane (HET-CAM): protective effect against the irritant 2% sodium dodecylsulfate
Parameters: species or system hen's eggs, American White Leghorn (Shaver Starcross 288)
Conditions: for protective effect (in words): applied 5 min before 2% sodium dodecylsulfate, compared to distilled water, NaCl 0.05/0.5/1.0%, CaCl2 0.05/0.5/5%, sorbitol 0.01/0.1/1% by weight; for Response (x) after 30 s / Response (x) after 2 min / Response (x) after 5 min: rating 0 (no response) to 7 (coagulation), 0.2 ml aqueous test substance, 5 min later 0.2 ml 2% sodium dodecylsulfate; for Response (x) after 30 s: read after 30 s; for Response (x) after 2 min: read after 2 min; for Response (x) after 5 min: read after 5 min
Description: Evidence of the activity in terms of enhancing the skin's defenses against noxious agents was furnished in a hen's egg test on the chorioallantoic membrane (HET-CAM), an established predictional test for detecting the irritation potency for the skin and mucosa. For testing, eggs of the race “American White Leghorn” ([…] 288) were employed. The eggs were incubated for 9 d (start of incubation=day 1) in a small-size motor incubator having an automatic turning over device and an automatic moisturizing control (type […] GmbH) at 37±1° C. and 65±5% of relative humidity. At day 9, the eggs were transilluminated for detecting fertilization, the non-fertilized eggs were sorted out, the remaining eggs were placed upright with the blunt pole (air bubble) up and incubated for another 24 h without turning over. At day 10, the egg pole was removed with fine scissors and tweezers, and the chorioallantoic membrane exposed. The following items were tested: irritant effect of the combination of active substances and its components protective effect Thus, 0.2 ml each of the aqueous solution of the test substance was applied, and after an interval of 5 min, 0.2 ml of a 2% solution of the irritant sodium dodecylsulfate was applied. The outcome of the response was compared to the effect obtained with water (placebo) according to the following rating: 0 no response 1 hyperemia-slight 2 hyperemia-medium 3 hyperemia-strong 4 hemorrhage-isolated 5 hemorrhage-frequent 6 hemorrhage-massive 7 coagulation […]

[Ca+2].[Cl-].[Cl-] [CaCl2, calcium chloride] was tested, and the “protective effect (in words)” value was “did not display any protective effects”.
N#C[S-].[Na+] [Comp. 2, NaSCN] was tested, and the “protective effect (in words)” value was “display a skin protective activity”, the “Response (x) after 30 s” value was 2.8 and the “Response (x) after 2 min” value was 3.1. For the same compound, the “Response (x) after 5 min” value was 3.8.
With NC(N)=O [Comp. 3, urea] the “protective effect (in words)” value was “display a skin protective activity”, the “Response (x) after 30 s” value was 2.8 and the “Response (x) after 2 min” value was 3.6. For the same compound, the “Response (x) after 5 min” value was 4.0.
In the case of [Cl-].[Na+] [NaCl, sodium chloride], the “protective effect (in words)” value is reported as “did not display any protective effects”.
In the case of OC[C@@H](O)[C@@H](O)[C@H](O)[C@@H](O)CO [sorbitol], the “protective effect (in words)” value is reported as “did not display any protective effects”.
